This is an account of results in patent US20180021360A1, “Combination Therapy Regimen For Treatment Of Selected HCV Genotypes” (JANSSEN PHARMACEUTICALS, INC., priority 2016, published 2018).

SMILES strings stand for the structures.

Series [1] can be described thus: Phase 2a open-label combination study, pharmacokinetics. Format: in vivo, human. The protocol:
A randomized, Phase 2a, open-label study was carried out to evaluate the safety, pharmacokinetics and efficacy of the combination of Compound (III), Odalasvir and Simeprevir in Genotype 1 treatment-naïve subjects with chronic hepatitis C. Other treatment-naïve subjects included Genotype 2, 3, 4, 5 and 6.
The aim of the study was to determine the efficacy, pharmacokinetics (PK), and safety of Compound (II)+Odalasvir±SMV in HCV-infected subjects.
This was an open-label study evaluating various dosing regimens of Compound (III)+Odalasvir±SMV for 6-8 weeks in treatment-nave HCV-infected subjects with varying clinical characteristics (e.g., GT 1 or 3, presence/absence of compensated Child Pugh A cirrhosis). Efficacy, PK and safety evaluations were conducted during and through 24 weeks post dosing. Up to 15 cohorts were enrolled; data was generated from cohorts that have completed dosing.

Series [2] has as its system HCV genotype 3. In words: activity against genotype 3 in vitro. Further details: species or system hepatitis C virus.
Series [3] deals with MRP3 (Homo sapiens, UniProt O15438). To be noted: cited from earlier work.
Series [4] addresses T1, OATP1B3 (Homo sapiens, UniProt Q9NPD5).
T1 sequence (Q9NPD5 1-702): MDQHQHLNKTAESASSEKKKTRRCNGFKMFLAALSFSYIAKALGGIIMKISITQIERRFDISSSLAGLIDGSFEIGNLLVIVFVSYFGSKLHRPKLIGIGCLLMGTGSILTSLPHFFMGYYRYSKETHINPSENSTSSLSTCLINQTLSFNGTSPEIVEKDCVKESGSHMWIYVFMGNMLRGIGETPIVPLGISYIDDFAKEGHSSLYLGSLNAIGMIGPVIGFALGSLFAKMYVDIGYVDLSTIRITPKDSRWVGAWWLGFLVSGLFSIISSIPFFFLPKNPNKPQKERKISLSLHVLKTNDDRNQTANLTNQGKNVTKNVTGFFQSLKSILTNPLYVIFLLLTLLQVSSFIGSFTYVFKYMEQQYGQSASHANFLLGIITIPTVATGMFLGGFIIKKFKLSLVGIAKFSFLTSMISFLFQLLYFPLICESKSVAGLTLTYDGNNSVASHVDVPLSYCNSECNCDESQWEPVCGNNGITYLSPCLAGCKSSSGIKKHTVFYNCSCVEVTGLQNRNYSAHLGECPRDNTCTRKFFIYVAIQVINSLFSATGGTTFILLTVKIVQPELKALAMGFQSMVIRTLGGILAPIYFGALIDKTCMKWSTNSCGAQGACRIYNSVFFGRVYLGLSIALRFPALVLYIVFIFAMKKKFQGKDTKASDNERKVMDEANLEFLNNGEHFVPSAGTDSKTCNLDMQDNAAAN
To be noted: cited from earlier work.

In series [5] the target is T2, OATP1B1 (Homo sapiens, UniProt Q9Y6L6).
T2 sequence (Q9Y6L6 1-691): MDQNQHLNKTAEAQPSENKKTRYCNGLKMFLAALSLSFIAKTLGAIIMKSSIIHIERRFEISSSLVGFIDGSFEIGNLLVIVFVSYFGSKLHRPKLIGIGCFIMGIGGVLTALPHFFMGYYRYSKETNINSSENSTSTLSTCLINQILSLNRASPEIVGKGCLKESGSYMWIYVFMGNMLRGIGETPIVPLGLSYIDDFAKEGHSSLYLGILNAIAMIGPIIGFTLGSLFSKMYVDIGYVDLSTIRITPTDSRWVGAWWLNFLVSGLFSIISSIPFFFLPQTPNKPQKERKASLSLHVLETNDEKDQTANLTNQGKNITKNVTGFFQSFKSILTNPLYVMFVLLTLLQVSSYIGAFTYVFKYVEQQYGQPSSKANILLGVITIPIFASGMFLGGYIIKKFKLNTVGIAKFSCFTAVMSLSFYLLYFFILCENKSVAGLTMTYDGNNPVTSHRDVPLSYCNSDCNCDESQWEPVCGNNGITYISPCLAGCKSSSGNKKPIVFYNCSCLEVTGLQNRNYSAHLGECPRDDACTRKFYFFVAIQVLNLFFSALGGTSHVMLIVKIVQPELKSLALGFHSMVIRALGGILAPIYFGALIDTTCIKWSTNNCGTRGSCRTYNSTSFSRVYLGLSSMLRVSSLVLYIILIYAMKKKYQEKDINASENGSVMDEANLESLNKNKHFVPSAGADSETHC
The following applies: cited from earlier work.

Series [6] can be described thus: Phase-1 drug-drug interaction study of Odalasvir, Simeprevir and Compound (III) in healthy volunteers. Format: in vivo, human. The source says: The following daily doses were employed:
Series [7] has as its system CYP. In words: CYP inhibition potential. The following applies: any CYP.
The target in series [8] is MRP2 (Homo sapiens, UniProt Q92887). To be noted: cited from earlier work.
The target of series [9] is BSEP (Homo sapiens, UniProt O95342). To be noted: cited from earlier work.
BSEP, sequence (O95342 whole entry): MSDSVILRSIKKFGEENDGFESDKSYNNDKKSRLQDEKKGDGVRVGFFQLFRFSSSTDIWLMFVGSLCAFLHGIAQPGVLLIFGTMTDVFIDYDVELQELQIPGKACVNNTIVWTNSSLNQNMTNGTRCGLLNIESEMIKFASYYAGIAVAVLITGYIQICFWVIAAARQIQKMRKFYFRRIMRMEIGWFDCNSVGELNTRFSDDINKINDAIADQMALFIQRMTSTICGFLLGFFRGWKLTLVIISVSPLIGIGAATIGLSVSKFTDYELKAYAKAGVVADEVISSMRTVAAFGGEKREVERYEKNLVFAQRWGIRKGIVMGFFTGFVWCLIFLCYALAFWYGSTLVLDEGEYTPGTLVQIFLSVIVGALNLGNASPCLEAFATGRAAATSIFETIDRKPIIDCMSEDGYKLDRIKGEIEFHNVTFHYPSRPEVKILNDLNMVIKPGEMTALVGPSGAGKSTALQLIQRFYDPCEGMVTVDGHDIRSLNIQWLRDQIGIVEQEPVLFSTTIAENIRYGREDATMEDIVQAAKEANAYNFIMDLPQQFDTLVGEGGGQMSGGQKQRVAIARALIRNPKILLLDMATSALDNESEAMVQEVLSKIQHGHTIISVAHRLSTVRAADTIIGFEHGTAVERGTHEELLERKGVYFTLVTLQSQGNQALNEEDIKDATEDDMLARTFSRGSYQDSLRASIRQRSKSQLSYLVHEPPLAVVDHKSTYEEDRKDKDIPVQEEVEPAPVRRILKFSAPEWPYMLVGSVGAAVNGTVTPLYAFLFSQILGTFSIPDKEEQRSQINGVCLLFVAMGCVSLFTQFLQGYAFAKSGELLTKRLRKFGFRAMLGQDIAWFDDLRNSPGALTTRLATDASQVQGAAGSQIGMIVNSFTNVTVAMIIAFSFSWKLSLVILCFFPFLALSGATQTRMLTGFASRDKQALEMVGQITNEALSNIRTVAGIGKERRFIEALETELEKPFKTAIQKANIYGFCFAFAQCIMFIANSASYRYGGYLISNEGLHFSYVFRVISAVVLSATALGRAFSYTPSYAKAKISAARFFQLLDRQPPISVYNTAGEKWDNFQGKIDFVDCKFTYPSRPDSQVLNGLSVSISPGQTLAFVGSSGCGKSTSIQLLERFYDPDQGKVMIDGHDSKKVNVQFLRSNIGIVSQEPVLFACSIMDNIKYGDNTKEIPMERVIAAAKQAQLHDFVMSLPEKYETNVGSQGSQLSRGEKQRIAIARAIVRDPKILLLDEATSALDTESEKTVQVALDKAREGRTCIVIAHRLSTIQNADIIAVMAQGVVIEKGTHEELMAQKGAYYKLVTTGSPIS

MRP2, sequence (Q92887 whole entry): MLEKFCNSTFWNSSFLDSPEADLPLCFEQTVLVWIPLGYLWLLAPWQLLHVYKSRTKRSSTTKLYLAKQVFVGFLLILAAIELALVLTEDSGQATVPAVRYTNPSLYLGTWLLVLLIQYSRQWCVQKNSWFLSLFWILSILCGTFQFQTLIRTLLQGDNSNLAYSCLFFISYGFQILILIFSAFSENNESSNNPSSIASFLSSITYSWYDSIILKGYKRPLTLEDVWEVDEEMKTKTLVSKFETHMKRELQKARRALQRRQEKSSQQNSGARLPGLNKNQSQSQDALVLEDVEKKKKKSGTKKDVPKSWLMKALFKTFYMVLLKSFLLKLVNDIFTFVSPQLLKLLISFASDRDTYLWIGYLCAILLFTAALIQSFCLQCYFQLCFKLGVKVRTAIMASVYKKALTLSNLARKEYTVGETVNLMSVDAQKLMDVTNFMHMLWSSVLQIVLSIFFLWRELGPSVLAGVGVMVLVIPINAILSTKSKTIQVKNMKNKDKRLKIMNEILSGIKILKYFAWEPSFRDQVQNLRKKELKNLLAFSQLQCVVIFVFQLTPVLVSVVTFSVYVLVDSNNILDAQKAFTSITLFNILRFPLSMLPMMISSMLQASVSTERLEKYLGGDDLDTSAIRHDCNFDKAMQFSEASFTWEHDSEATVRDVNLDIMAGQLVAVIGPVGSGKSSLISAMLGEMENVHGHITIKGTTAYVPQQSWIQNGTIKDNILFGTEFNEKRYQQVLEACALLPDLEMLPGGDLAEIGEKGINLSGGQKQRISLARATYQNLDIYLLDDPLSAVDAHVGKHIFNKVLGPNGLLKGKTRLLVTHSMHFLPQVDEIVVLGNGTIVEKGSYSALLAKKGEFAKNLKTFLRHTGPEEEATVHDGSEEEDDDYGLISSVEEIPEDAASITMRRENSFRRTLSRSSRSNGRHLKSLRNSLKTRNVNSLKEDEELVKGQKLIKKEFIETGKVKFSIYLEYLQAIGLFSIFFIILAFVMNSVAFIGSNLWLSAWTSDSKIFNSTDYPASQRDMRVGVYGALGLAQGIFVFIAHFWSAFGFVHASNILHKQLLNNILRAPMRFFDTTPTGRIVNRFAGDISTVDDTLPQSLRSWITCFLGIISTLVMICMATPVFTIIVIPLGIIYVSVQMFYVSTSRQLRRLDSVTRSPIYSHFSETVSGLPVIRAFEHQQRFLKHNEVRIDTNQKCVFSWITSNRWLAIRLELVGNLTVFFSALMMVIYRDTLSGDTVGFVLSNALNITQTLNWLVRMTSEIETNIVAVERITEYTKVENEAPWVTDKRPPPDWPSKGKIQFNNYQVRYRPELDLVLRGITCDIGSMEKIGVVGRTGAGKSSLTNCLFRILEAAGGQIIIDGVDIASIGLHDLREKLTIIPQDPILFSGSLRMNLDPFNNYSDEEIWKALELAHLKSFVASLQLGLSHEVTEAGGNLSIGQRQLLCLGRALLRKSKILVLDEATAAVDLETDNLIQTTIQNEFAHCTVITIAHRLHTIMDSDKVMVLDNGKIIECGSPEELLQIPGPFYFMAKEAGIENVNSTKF
MRP3, sequence (O15438 whole entry): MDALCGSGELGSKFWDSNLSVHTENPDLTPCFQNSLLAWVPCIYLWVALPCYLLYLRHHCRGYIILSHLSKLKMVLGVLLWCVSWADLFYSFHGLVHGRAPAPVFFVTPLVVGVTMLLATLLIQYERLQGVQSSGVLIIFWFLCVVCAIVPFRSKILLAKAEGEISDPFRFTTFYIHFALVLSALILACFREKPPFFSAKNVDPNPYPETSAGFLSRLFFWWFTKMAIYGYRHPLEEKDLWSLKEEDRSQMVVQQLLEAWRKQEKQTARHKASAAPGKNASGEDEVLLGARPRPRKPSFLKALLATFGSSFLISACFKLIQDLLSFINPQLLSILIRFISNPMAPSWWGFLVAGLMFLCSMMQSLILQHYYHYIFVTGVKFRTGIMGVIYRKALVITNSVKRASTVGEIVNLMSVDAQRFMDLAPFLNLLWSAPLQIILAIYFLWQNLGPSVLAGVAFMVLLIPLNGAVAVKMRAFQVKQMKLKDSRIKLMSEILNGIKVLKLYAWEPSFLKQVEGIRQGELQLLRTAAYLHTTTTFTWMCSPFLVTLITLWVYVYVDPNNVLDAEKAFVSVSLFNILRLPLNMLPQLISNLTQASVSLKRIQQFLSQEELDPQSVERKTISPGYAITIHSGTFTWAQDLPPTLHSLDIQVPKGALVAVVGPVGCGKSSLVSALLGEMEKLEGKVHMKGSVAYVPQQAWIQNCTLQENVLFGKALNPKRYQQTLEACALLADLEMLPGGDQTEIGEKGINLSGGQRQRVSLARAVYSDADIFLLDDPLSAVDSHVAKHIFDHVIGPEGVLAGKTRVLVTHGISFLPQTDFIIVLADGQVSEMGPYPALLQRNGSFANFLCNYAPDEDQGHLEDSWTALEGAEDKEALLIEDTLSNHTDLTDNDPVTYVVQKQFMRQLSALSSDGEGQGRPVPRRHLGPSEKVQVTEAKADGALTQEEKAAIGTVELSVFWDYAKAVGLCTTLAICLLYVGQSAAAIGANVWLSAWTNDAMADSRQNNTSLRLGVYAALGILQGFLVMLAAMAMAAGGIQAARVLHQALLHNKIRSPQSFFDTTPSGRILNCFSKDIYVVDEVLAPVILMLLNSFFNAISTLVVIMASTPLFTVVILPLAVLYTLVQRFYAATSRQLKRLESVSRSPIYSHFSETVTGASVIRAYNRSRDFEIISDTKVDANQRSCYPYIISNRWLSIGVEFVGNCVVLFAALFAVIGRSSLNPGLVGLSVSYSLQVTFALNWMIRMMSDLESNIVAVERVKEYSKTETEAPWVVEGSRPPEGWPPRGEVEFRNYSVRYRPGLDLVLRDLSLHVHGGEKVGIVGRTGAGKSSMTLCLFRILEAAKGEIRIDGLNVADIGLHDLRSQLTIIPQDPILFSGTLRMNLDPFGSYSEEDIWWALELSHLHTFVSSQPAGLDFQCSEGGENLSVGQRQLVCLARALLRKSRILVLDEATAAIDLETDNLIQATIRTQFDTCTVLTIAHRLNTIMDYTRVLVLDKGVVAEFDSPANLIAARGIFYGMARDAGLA

As for `COC(=O)N[C@H](C(=O)N1[C@H](c2nc3cc(-c4cc5ccc4CCc4ccc(c(-c6ccc7[nH]c([C@@H]8C[C@@H]9CCCC[C@@H]9N8C(=O)[C@@H](NC(=O)OC)C(C)C)nc7c6)c4)CC5)ccc3[nH]2)C[C@@H]2CCCC[C@@H]21)C(C)C` [Odalasvir, methyl [(2,)-1-[(2S,3aS,7aS)-2-[6-[11-[2-[(2S,3aS,7aS)-1-[(2S)-2-[(methoxycarbonyl)amino]-3-methylbutanoyl]octahydro-1H-indol-2-yl]-1H-benzimidazol-6-yl]tricyclo[8.2.2.2^4,7]hexadeca-1(12),4,6,10,13,15-hexaen-5-yl]-1H-benzimidazol-2-yl]octahydro-1H-indol-1-yl]-3-methyl-1-oxobutan-2-yl]carbamate], the “observed exposures in Cohort 1 / group (i)” value in [1] (Compound (III) 400 mg, ODV 50 mg QD, SMV 100 mg QD) is reported as “higher than anticipated”. In [1] (in vivo), the “decrease of ODV exposure on reducing ODV dosing from QD to QOD” value is given as “proportionally”. The “activity against genotype 3 in vitro” value in series [2] is given as “effective”. The “in vitro inhibition of MRP3” value in [3] is reported as “no inhibition”. For the same molecule, in series [4], the “in vitro inhibition of OATP1B3” value is recorded as “no inhibition”. In addition, the “in vitro inhibition of OATP1B1” value in series [5] is reported as “no inhibition”. Moreover, in series [6] (DDI study results), the “effect of Compound (III) on SMV or ODV” value is “no apparent effect”; the “increase of exposure caused by SMV” value is 1.6 ×; the “increase of exposure, effect of the three Compounds” value is 1.5 ×. In [6] (human in vivo study (Example 1)), the “increase of exposure on co-administration of Compounds I, II and III” value was 1.5 times. In [6] (human, in vivo), the “effect of Compound (III) on bioavailability of SMV or ODV” value is on record as “does not alter” and the “increase of exposure of ODV by SMV” value came out at 1.6 fold. Besides, the CYP inhibition potential entry in series [7] is on record as “does not inhibit”. In addition, the “in vitro inhibition of MRP2” value in series [8] is given as “no inhibition”. The “in vitro inhibition of BSEP” value in series [9] is given as “no inhibition”.
